Experimental data from PMC7827648 (Molecules, 2021).
Several values for one entry are separate records, joined by “and”; a condition that tells them apart may be missing. Identical values can stand only once.

Columns and labels:
in vitro = details: human
[1] = test system: HCT116 (intestinal carcinoma) cells; experiment: Cytotoxicity, MTT assay, HCT116 cells; format: cell-based; details: Homo sapiens, HCT-116, read-out: IC50, 50% inhibition of the cell population growth, 72 h, mean ± SD
Method: (§1) The cytotoxicity of the newly synthesized Schiff bases was evaluated in vitro in a panel of cultured tumor cells, assessing cell viability at scalar concentrations of the test compounds (≤500 μM) by MTT (i.e., 3-(4,5-dimethylthiazol-2-yl)-2,5-diphenyltetrazolium bromide) and Alamar Blue assays, using doxorubicin as the positive controls. Most of the compounds were tested against RD (rhabdomyosarcoma), HCT116 (intestinal carcinoma), HeLa (adenocarcinoma of the cervix uterus) and A549 (lung adenocarcinoma) cell lines, whereas five representative compounds of the subsets were tested also against K562 (chronic myelogenous leukemia) tumor cells.
(§2) The experiments were carried out in triplicate.

[2] = biological target: T1, human butyrylcholinesterase (BChE) (Homo sapiens, UniProt P06276); experiment: BChE inhibition, Ellman's method; format: biochemical; details: mean ± SD (n = 3), n.i. = no inhibition; for % inhibition hBChE: at 10 μM
T1 construct: BChE from human serum (50 U/mg); from tissue; host or cells: human serum
Method: (§3) The ChE inhibition assay was carried out using the Ellman’s spectrophotometric method [23], as applied to the 96-well plate technique [24] on a Tecan Infinite M1000 Pro instrument (Cernusco s.N., Italy).

[3] = biological target: T2, β-amyloid (Aβ)1–40 self-aggregation (Homo sapiens, UniProt P05067); experiment: Inhibition of self-induced Aβ40 aggregation, thioflavin T fluorescence; format: biochemical; details: Aβ40 30 μM, 2% HFIP, ThT, mean ± SD (n = 3); for IC50: PBS pH 7.4, 2 h
T2 construct: self-aggregation of Aβ peptides 1–40 (Aβ40)
Method: Molecules able to inhibit simultaneously AChE and β-amyloid (Aβ) aggregation/neurotoxicity may have potential as drugs for the treatment of AD [14]. Herein, the new DHPPIQ derivatives were evaluated for the inhibitory effects on the self-aggregation of Aβ peptides 1–40 (Aβ40), through a test based on the measurement of thioflavin T (ThT) fluorescence. Quercetin, which is a strong inhibitor of in vitro Aβ self-aggregation, was used as a positive control.
Each compound was initially tested at a 100-μM concentration. […] […].
According to an already reported 96-well plate procedure, the test compounds at 100 μM were incubated with Aβ40 (30 μM) and 2% HFIP (1,1,1,3,3,3-hexafluoro-2-propanol), used as aggregation enhancer in PBS pH 7.4 for 2 h at room temperature. After the addition of ThT, the fluorescence was read at the 440/485 nm excitation/emission wavelength. Experiments were performed in triplicate, and the % inhibition values calculated as mean ± SD.

[4] = test system: RD (rhabdomyosarcoma) cells; experiment: Cytotoxicity, MTT assay, RD cells; format: cell-based; details: Homo sapiens, read-out: IC50, 50% inhibition of the cell population growth, 72 h, mean ± SD
Method: as §1, §2

[5] = biological target: human acetylcholinesterase (AChE) (Homo sapiens, UniProt P22303); experiment: biochemical; details: for inhibition at 10 µM: mean ± SD (n = 3), read-out: % inhibition hAChE; for IC50: human recombinant AChE, pH 8.0, mean ± SD (n = 3), read-out: IC50 hAChE
Method: as §3

[6] = test system: A549 (lung adenocarcinoma) cells; experiment: Cytotoxicity, MTT assay, A549 cells; format: cell-based; details: Homo sapiens, read-out: IC50, 50% inhibition of the cell population growth, 72 h, mean ± SD
Method: as §1, §2

[7] = test system: HeLa (adenocarcinoma of the cervix uterus) cells; experiment: Cytotoxicity, MTT assay, HeLa cells; format: cell-based; details: Homo sapiens, read-out: IC50, 50% inhibition of the cell population growth, 72 h, mean ± SD
Method: as §1, §2

[8] = test system: K562 (chronic myelogenous leukemia) cells; experiment: Cytotoxicity, Alamar Blue (resazurin) assay, K562 cells; format: cell-based; details: Homo sapiens, read-out: IC50, 50% inhibition of the cell population growth, 72 h, mean ± SD
Method: as §1, §2

human MAO A = biological target: T3, human MAO A (Homo sapiens, UniProt P21397); experiment: biochemical; details: human recombinant MAO A, kynuramine, mean ± SD (n = 3); read-out: IC50 hMAO A
T3 construct: host or cells: baculovirus-infected insect cells (microsomes)
T3 sequence (P21397 1-527): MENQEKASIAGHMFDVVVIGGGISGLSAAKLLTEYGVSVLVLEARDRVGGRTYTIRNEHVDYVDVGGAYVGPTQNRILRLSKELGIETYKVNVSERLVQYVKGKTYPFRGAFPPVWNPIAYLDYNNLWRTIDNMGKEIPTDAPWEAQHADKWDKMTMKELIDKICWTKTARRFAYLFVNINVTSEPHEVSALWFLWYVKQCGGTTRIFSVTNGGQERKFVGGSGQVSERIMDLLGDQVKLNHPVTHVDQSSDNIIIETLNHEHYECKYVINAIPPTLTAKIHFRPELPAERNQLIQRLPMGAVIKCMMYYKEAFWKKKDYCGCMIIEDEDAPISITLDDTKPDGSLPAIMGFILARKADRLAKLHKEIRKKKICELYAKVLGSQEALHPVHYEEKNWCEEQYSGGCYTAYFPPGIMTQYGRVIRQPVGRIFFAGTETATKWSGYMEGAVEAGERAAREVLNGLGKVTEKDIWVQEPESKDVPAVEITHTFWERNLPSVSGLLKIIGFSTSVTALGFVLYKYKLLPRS
Method: (§4) The inhibition of human recombinant MAO A (250 U/mg) and B (59 U/mg; microsomes from baculovirus-infected insect cells) was evaluated using the reported 96-well plate technique [12]. on a Tecan Infinite M1000 Pro instrument (Cernusco s.N., Italy). […] After addition of the enzyme and 30 min of incubation, NaOH was added and the fluorescence read at the 310/400 excitation/emission wavelength.

human MAO B = biological target: T4, human MAO B (Homo sapiens, UniProt P27338); experiment: biochemical; details: at 10 μM, mean ± SD (n = 3); read-out: % inhibition hMAO B
T4 construct: host or cells: baculovirus-infected insect cells (microsomes)
T4 sequence (P27338 1-520): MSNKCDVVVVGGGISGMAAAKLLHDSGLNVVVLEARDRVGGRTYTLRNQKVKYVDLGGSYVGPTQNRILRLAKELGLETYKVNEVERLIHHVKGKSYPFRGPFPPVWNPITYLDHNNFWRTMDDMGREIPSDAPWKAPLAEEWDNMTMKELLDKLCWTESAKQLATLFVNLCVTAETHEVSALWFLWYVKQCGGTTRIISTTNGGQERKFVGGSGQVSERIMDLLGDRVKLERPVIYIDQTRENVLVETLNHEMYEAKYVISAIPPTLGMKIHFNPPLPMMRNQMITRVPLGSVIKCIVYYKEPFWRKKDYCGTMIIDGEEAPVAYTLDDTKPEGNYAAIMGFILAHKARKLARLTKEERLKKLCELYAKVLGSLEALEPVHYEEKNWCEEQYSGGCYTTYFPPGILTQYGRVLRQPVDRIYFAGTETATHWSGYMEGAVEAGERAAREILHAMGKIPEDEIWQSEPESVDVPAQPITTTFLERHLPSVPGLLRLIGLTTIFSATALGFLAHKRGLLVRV
Method: as §4

human acetylcholinesterase (AChE), sequence (P22303 32-614): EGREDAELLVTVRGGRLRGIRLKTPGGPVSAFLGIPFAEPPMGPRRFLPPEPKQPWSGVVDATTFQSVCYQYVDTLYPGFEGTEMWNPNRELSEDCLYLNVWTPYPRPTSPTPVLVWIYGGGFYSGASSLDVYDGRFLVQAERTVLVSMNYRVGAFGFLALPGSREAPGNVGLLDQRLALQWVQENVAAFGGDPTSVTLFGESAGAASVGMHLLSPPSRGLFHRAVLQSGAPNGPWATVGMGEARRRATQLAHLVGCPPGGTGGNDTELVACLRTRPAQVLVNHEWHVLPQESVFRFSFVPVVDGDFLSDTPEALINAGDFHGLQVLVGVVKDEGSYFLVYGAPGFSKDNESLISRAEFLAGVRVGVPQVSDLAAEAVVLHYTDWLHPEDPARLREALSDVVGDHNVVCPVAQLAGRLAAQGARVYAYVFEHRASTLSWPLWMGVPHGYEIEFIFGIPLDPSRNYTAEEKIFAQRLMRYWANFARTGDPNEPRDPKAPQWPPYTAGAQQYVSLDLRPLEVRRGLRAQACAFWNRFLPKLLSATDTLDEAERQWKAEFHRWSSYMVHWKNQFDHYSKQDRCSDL
T1 sequence (P06276 29-602): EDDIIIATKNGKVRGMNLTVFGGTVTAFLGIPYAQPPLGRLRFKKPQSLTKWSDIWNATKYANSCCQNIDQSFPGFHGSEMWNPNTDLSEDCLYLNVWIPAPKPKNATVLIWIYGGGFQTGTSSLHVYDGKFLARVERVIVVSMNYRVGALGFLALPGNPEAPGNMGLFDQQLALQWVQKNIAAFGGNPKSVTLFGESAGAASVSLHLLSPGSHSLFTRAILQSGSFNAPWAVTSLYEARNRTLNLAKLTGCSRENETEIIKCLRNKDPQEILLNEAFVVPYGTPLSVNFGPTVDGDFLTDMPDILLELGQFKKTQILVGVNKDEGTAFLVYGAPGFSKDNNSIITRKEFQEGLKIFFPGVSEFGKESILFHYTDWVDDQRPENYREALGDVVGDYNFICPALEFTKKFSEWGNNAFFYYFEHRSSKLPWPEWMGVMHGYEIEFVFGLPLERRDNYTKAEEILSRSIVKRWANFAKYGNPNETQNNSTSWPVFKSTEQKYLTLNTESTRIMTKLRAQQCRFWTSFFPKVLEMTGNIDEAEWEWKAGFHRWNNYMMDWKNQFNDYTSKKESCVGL
T2 sequence (P05067 672-711 limits assumed): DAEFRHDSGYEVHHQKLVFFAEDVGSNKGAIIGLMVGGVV

CC[C@@]1(O)C(=O)OCc2c1cc1n(c2=O)Cc2cc3ccccc3nc2-1 [Camptothecin, reference compound]
IC50 at 72 h (in vitro): 0.272 ± 0.01 µM

COc1cc2c(cc1OC)-c1c(-c3ccc(Cl)cc3)c(C=O)cn1CC2 [Compound 3]
IC50 [1]: 22 ± 4 µM | % inhibition hBChE [2]: n.i. | IC50 [3]: 66 ± 2.2 µM | IC50 [4]: 17.6 ± 3.2 µM | inhibition at 10 µM [5]: 32 ± 3% | IC50 [6]: 38.6 ± 3.2 µM | IC50 [7]: 33 ± 4.5 µM

COc1cc2c(cc1OC)-c1c(-c3ccc(Cl)cc3)c(C=O)c(-c3ccccc3)n1CC2 [Compound 4]
IC50 [1]: 252 ± 11 µM | % inhibition hBChE [2]: n.i. | inhibition at 100 µM [3]: 35 ± 6% | IC50 [4]: 163 ± 20 µM | inhibition mechanism on hAChE ([5]; Michaelis-Menten / Lineweaver-Burk plots): noncompetitive/mixed-type mechanism | Ki ([5]; complete kinetics, human AChE, read-out: inhibition constant (Ki) hAChE): 3.58 ± 0.04 µM | IC50 [5]: 7.9 ± 0.13 µM | IC50 [6]: 105 ± 11 µM | IC50 [7]: 109 ± 5 µM

COc1cc2c(cc1OC)-c1c(-c3ccc(F)cc3)c(C=O)cn1CC2 [Compound 5]
IC50 [1]: 32.2 ± 0.3 µM | % inhibition hBChE [2]: n.i. | IC50 [4]: 17.8 ± 0.4 µM | inhibition at 10 µM [5]: 33 ± 4% | IC50 [6]: 41.3 ± 2 µM | IC50 [7]: 33.8 ± 1 µM

COc1cc2c(cc1OC)-c1c(-c3ccc(F)cc3)c(C=O)c(-c3ccccc3)n1CC2 [Compound 6]
IC50 [1]: 261 ± 13 µM | IC50 [4]: 91.1 ± 10.9 µM

CCOc1ccc(-c2c(/C=N/c3ccc(OC)cc3)cn3c2-c2cc(OCC)c(OCC)cc2CC3)cc1OCC [Compound 7, (E)-1-(1-(3,4-diethoxyphenyl)-8,9-diethoxy-5,6-dihydropyrrolo[2,1-a]isoquinolin-2-yl)-N-(4-methoxyphenyl)methanimine]
IC50 [1]: 38.5 ± 6.6 µM | % inhibition hBChE [2]: n.i. | IC50 [3]: 78 ± 5.1 µM | IC50 [4]: 132 ± 4 µM | IC50 [8]: 171 ± 12 µM | IC50 [5]: 20.2 ± 3.1 µM | IC50 [6]: 79.5 ± 6.8 µM | IC50 [7]: 34.9 ± 1.8 µM

COc1ccc(/N=C/c2c(-c3ccc(Cl)cc3)c3n(c2-c2ccccc2)CCc2cc(OC)c(OC)cc2-3)cc1 [Compound 10, (E)-1-(1-(4-chlorophenyl)-8,9-dimethoxy-3-phenyl-5,6-dihydropyrrolo[2,1-a]isoquinolin-2-yl)-N-(4-methoxyphenyl)methanimine]
IC50 [1]: 211 ± 9 µM | % inhibition hBChE [2]: n.i. | inhibition at 100 µM [3]: 42 ± 5% | inhibition at 10 µM [5]: 35 ± 7%

COc1ccc(/N=C/c2cn3c(c2-c2ccc(F)cc2)-c2cc(OC)c(OC)cc2CC3)cc1 [Compound 11, (E)-1-(1-(4-fluorophenyl)-8,9-dimethoxy-5,6-dihydropyrrolo[2,1-a]isoquinolin-2-yl)-N-(4-methoxyphenyl)methanimine]
IC50 [1]: 114 ± 4 µM | % inhibition hBChE [2]: n.i. | IC50 [3]: 54 ± 2.2 µM | IC50 [4]: 145 ± 1 µM | IC50 (human MAO A): 18.1 ± 1.2 µM | inhibition at 10 µM (human MAO B): 22 ± 4% | inhibition at 10 µM [5]: 40 ± 2% | IC50 [6]: 153 ± 2.2 µM | IC50 at 72 h (in vitro; SH-SY5Y neuroblastoma cells): 56.1 ± 2.4 µM | IC50 [7]: 87.2 ± 1.1 µM

CCOc1ccc(-c2c(/C=N/c3ccc(/N=C/c4cn5c(c4-c4ccc(OCC)c(OCC)c4)-c4cc(OCC)c(OCC)cc4CC5)cc3)cn3c2-c2cc(OCC)c(OCC)cc2CC3)cc1OCC [Compound 13a, (1E,1’E)-N,N’-(1,4-phenylene)bis(1-(1-[3,4-diethoxyphenyl]-8,9-diethoxy-5,6-dihydropyrrolo[2,1-a]isoquinolin-2-yl)methanimine)-1,4-diaminium dichloride]
IC50 [1]: 103 ± 8 µM | inhibition at 10 µM ([2]; read-out: % inhibition hBChE): 11 ± 3% | IC50 [3]: 42 ± 3 µM | IC50 [4]: 390 ± 19 µM | IC50 (human MAO A): 12.3 ± 1.1 µM | inhibition at 10 µM (human MAO B): 31 ± 3% | IC50 [5]: 13 µM and 13.1 µM | IC50 [6]: 240 ± 18 µM | IC50 at 72 h (in vitro): 101 ± 6 µM | IC50 [7]: 205 ± 10 µM

COc1cc2c(cc1OC)-c1c(-c3ccc(Cl)cc3)c(/C=N/c3ccc(/N=C/c4c(-c5ccc(Cl)cc5)c5n(c4-c4ccccc4)CCc4cc(OC)c(OC)cc4-5)cc3)c(-c3ccccc3)n1CC2 [Compound 15a, (1E,1’E)-N,N’-(1,4-phenylene)bis(1-(1-[4-chlorophenyl]-8,9-dimethoxy-3-phenyl-5,6-dihydropyrrolo[2,1-a]isoquinolin-2-yl)methanimine)-1,4-diaminium dichloride]
IC50 [1]: 102 ± 5 µM | % inhibition hBChE [2]: n.i. | IC50 [3]: 50 ± 6.3 µM | IC50 [4]: 149 ± 3 µM | IC50 [8]: 251 ± 17 µM | inhibition at 10 µM [5]: 25 ± 3% | IC50 [6]: 120 ± 3.5 µM | IC50 [7]: 93.4 ± 2.6 µM

CCOc1ccc(-c2c(/C=N/CCCN(C)C)cn3c2-c2cc(OCC)c(OCC)cc2CC3)cc1OCC.Cl.Cl [Compound 16a, (E)-N^1-((1-[3,4-diethoxyphenyl]-8,9-diethoxy-5,6-dihydropyrrolo[2,1-a]isoquinolin-2-yl)methylene)-N^3,N^3-dimethylpropane-1,3-diaminium chloride]
IC50 [1]: 60.5 ± 0.7 µM | % inhibition hBChE [2]: n.i. | inhibition at 100 µM [3]: 48 ± 4% | IC50 [4]: 72.8 ± 4.6 µM | inhibition at 10 µM [5]: 32 ± 2% | IC50 [6]: 85.1 ± 0.2 µM | IC50 [7]: 63.1 ± 3.1 µM

CCOc1ccc(-c2c(/C=N/CC/N=C/c3cn4c(c3-c3ccc(OCC)c(OCC)c3)-c3cc(OCC)c(OCC)cc3CC4)cn3c2-c2cc(OCC)c(OCC)cc2CC3)cc1OCC [Compound 19, (1E,1’E)-N,N’-(ethane-1,2-diyl)bis(1-(1-(3,4-diethoxyphenyl)-8,9-diethoxy-5,6-dihydropyrrolo[2,1-a]isoquinolin-2-yl)methanimine)]
IC50 [1]: 401 ± 8 µM | % inhibition hBChE [2]: n.i. | inhibition at 100 µM [3]: 48 ± 3% | IC50 [4]: 65.1 ± 7.3 µM | IC50 [8]: 290 ± 12 µM | inhibition at 10 µM [5]: 37 ± 2% | IC50 [7]: 84 ± 1.3 µM

COc1cccc2c1C(=O)c1c(O)c3c(c(O)c1C2=O)C[C@@](O)(C(=O)CO)C[C@@H]3O[C@H]1C[C@H](N)[C@H](O)[C@H](C)O1 [Doxorubicin, reference compound]
IC50 [1]: 0.142 ± 0.011 µM | IC50 [4]: 0.29 ± 0.021 µM | IC50 [8]: 1.75 ± 0.06 µM | IC50 [6]: 0.38 ± 0.021 µM | IC50 [7]: 0.892 ± 0.013 µM
